# Test results from ChEMBL document CHEMBL3627682, “Exploration of the structure-activity relationship of 1,2,4-oxadiazole antibiotics” (2015).
# Legend:
# Format in all cases: functional
# Staphylococcus aureus [1] = test: Antibacterial activity against Staphylococcus aureus ATCC 29213
# [2] = tested on: Staphylococcus haemolyticus; test: Antibacterial activity against Staphylococcus haemolyticus ATCC 29970
# Staphylococcus aureus [3] = test: Antibacterial activity against vancomycin-resistant Staphylococcus aureus VRS2
# Staphylococcus aureus [4] = test: Antibacterial activity against vancomycin-resistant Staphylococcus aureus VRS1
# [5] = tested on: Staphylococcus epidermidis; test: Antibacterial activity against Staphylococcus epidermidis ATCC 35547
# Enterococcus faecalis [6] = test: Antibacterial activity against Enterococcus faecalis 201
# Enterococcus faecalis [7] = test: Antibacterial activity against vancomycin-resistant Enterococcus faecalis 99
# Enterococcus faecalis [8] = test: Antibacterial activity against Enterococcus faecalis ATCC 29212
# Enterococcus faecium = test: Antibacterial activity against vancomycin-resistant Enterococcus faecium 106
SMILES,MIC (Staphylococcus aureus [1]),other results
c1cc2cc(-c3nc(-c4ccc5c(c4)OCO5)no3)ccc2[nH]1,≥ 128 µg/mL,–
Oc1ccc(-c2nc(-c3ccc4c(c3)C=CCO4)no2)cc1,≥ 128 µg/mL,–
Oc1ccc(-c2nc(-c3ccc(Nc4ccc(C(F)(F)F)cc4)cc3)no2)cc1,32 µg/mL,–
Oc1ccc(-c2nc(-c3ccc4[nH]c5ccccc5c4c3)no2)cc1,≥ 128 µg/mL,–
Oc1ccc(-c2nc(N3CCN(c4cccc(Cl)c4)CC3)no2)cc1,≥ 128 µg/mL,–
Clc1cccc(N2CCN(c3noc(-c4n[nH]cc4Cl)n3)CC2)c1,16 µg/mL,–
Clc1cc(Cl)cc(N2CCN(c3noc(-c4ccc5[nH]ccc5c4)n3)CC2)c1,≥ 128 µg/mL,–
Cl.Nc1ccc(-c2noc(-c3ccc(O)cc3)n2)cc1,≥ 256 µg/mL,–
O=C(Nc1ccc(-c2noc(-c3ccc(O)cc3)n2)cc1)c1ccccc1,≥ 500 µg/mL,–
Oc1ccc(-c2nc(-c3ccc(N4CCNCC4)cc3)no2)cc1,32 µg/mL,–
CN1CCN(c2ccc(-c3noc(-c4ccc(O)cc4)n3)cc2)CC1,≥ 128 µg/mL,–
CC(C)(C)OC(=O)N1CCN(c2ccc(-c3noc(-c4n[nH]cc4Cl)n3)cc2)CC1,≥ 128 µg/mL,–
Clc1c[nH]nc1-c1nc(-c2ccc(N3CCNCC3)cc2)no1,≥ 128 µg/mL,–
CN[C@H](CC(C)C)C(=O)N[C@H]1C(=O)N[C@@H](CC(N)=O)C(=O)N[C@H]2C(=O)N[C@H]3C(=O)N[C@H](C(=O)N[C@H](C(=O)O)c4cc(O)cc(O)c4-c4cc3ccc4O)[C@H](O)c3ccc(c(Cl)c3)Oc3cc2cc(c3O[C@@H]2O[C@H](CO)[C@@H](O)[C@H](O)[C@H]2O[C@H]2C[C@](C)(N)[C@H](O)[C@H](C)O2)Oc2ccc(cc2Cl)[C@H]1O [VANCOMYCIN],–,MIC [2]: 2 µg/mL; MIC (Staphylococcus aureus [3]): 64 µg/mL; MIC (Staphylococcus aureus [4]): 512 µg/mL; MIC [5]: 16 µg/mL; MIC (Enterococcus faecalis [6]): 1 µg/mL; MIC (Enterococcus faecalis [7]): 128 µg/mL; MIC (Enterococcus faecalis [8]): 2 µg/mL; MIC (Enterococcus faecium): 256 µg/mL

# Further lines, with some results ahead:
MIC (Staphylococcus aureus [1]),SMILES,other results
≥ 128 µg/mL,c1cc2cc(-c3nc(-c4ccc5c(c4)OCC5)no3)ccc2[nH]1,–
≥ 500 µg/mL,COc1ccc(-c2noc(-c3ccc(O)cc3)n2)cc1OC,–
≥ 128 µg/mL,Oc1ccc(-c2nc(-c3ccc(Nc4ccc(F)cc4)cc3)no2)cc1,–
≥ 128 µg/mL,Oc1ccc(-c2nc(-c3ccc(Cc4ccccc4)cc3)no2)cc1,–
≥ 128 µg/mL,O=C(c1ccccc1)c1ccc(-c2noc(-c3ccc(O)cc3)n2)cc1,–
≥ 128 µg/mL,Oc1ccc(-c2nc(-c3ccc(N(Cc4ccccc4)c4ccccc4)cc3)no2)cc1,–
≥ 128 µg/mL,[O-][S+](c1ccccc1)c1ccc(-c2noc(-c3ccc(O)cc3)n2)cc1 (stereo unspecified),–
≥ 128 µg/mL,O=S(=O)(c1ccccc1)c1ccc(-c2noc(-c3ccc(O)cc3)n2)cc1,–
≥ 128 µg/mL,Cn1c2ccccc2c2cc(-c3noc(-c4ccc(O)cc4)n3)ccc21,–
≥ 128 µg/mL,Oc1ccc(-c2nc(N3CCN(c4ccccc4)CC3)no2)cc1,–
≥ 128 µg/mL,Clc1c[nH]nc1-c1nc(N2CCN(c3ccccc3)CC2)no1,–
≥ 128 µg/mL,Clc1cc(Cl)cc(N2CCN(c3noc(-c4n[nH]cc4Cl)n3)CC2)c1,–
≥ 128 µg/mL,Clc1cccc(N2CCN(c3noc(-c4ccc5[nH]ccc5c4)n3)CC2)c1,–
≥ 500 µg/mL,CC(=O)Nc1ccc(-c2noc(-c3ccc(O)cc3)n2)cc1,–
≥ 128 µg/mL,Oc1ccc(-c2nc(-c3ccc(N4CCOCC4)cc3)no2)cc1,–
